For this experiment, the target named is Streptavidin (SA) (Streptomyces avidinii, UniProt P22629). The experiment is described as follows: label-free optofluidic microbubble resonator, kinetic kon/koff global Langmuir fit. To be noted: read-out: ka (M)^-1 (converted). The class given is binding. The source says:
label-free optofluidic microbubble resonator, kinetic kon/koff global Langmuir fit on Streptavidin (SA)

Chain of Streptavidin (SA) (P22629 25-183): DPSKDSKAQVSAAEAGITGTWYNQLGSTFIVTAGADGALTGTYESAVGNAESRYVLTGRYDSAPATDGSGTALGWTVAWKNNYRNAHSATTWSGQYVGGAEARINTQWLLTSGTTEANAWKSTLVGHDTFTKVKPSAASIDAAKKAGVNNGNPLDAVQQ

Turning to `C=CCc1ccc(O)c(-c2cc(CC=C)ccc2O)c1` [magnolol], the Kd is 2.13e-11 M.

The record behind these values is paper PMC6187366, “Highly Sensitive Label-Free Detection of Small Molecules with an Optofluidic Microbubble Resonator” (Micromachines, 2018).
